# Source: the supplement of paper PMC10307832
# Experiments:
# Assay in all cases: relative viability (nuclei count vs DMSO), 5 days (fraction); higher = more cells survive
# [1] = test system: COR-L 105
# Outline: (§1)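 Lung cancer cell lines in 1536-well plates were dosed by pin tool the day after seeding, either with one drug alone or with a fixed anchor-drug dose plus five library-drug doses (not always all listed) in √10 steps. After 5 days, cells were fixed and their nuclei stained in one step (final 0.05% Triton X-100, 1% formaldehyde, 1 ug/ml Hoechst), then counted on 4× images. Relative viability is the nuclei count in treated wells divided by that in vehicle wells. Values are medians of duplicate plates.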
# [2] = test system: COR-L23
# Outline: as §1
# [3] = test system: EKVX
# Outline: as §1
# [4] = test system: HARA
# Outline: as §1
# [5] = test system: HOP-62
# Outline: as §1
# [6] = test system: NCI-H1355
# Outline: as §1
# [7] = test system: NCI-H1734
# Outline: as §1
# [8] = test system: NCI-H1755
# Outline: as §1
# [9] = test system: NCI-H1993
# Outline: as §1
# [10] = test system: NCI-H2009
# Outline: as §1
# [11] = test system: NCI-H2170
# Outline: as §1
# [12] = test system: NCI-H2228
# Outline: as §1
# [13] = test system: NCI-H2347
# Outline: as §1
# [14] = test system: NCI-H322M
# Outline: as §1
# [15] = test system: NCI-H358
# Outline: as §1
# [16] = test system: NCI-H647
# Outline: as §1
# [17] = test system: NCI-H838
# Outline: as §1
# [18] = test system: PC-14
# Outline: as §1
# [19] = test system: SK-MES-1
# Outline: as §1
# [20] = test system: UMC-11
# Outline: as §1
smiles,measurement,setting,value
COc1cc(N2CCC(C(N)=O)CC2)ccc1Nc1nc(N)c(Cl)c(Nc2ccccc2S(=O)(=O)C(C)C)n1 [HG-5-88-01] + C[C@@H](Oc1cc(-c2cnn(C3CCNCC3)c2)cnc1N)c1c(Cl)ccc(F)c1Cl [Crizotinib] (partner 1 µM),relative viability,[1]; first compound 0.04 µM,0.855
same,relative viability,[1]; first compound 0.1265 µM,0.728
same,relative viability,[1]; first compound 0.4 µM,0.519
same,relative viability,[1]; first compound 1.265 µM,0.346
same,relative viability,[1]; first compound 4 µM,0.366
same,relative viability,[2]; first compound 0.04 µM,0.651
same,relative viability,[2]; first compound 0.1265 µM,0.588
same,relative viability,[2]; first compound 0.4 µM,0.645
same,relative viability,[2]; first compound 1.265 µM,0.584
same,relative viability,[2]; first compound 4 µM,0.389
same,relative viability,[3]; first compound 0.04 µM,0.989
same,relative viability,[3]; first compound 0.1265 µM,0.93
same,relative viability,[3]; first compound 0.4 µM,0.892
same,relative viability,[3]; first compound 4 µM,0.843
same,relative viability,[4]; first compound 0.04 µM,1.09
same,relative viability,[4]; first compound 0.1265 µM,0.891
same,relative viability,[4]; first compound 0.4 µM,1.08
same,relative viability,[4]; first compound 1.265 µM,1.08
same,relative viability,[4]; first compound 4 µM,0.695
same,relative viability,[5]; first compound 0.04 µM,0.894
same,relative viability,[5]; first compound 0.1265 µM,1.12
same,relative viability,[5]; first compound 0.4 µM,0.83
same,relative viability,[5]; first compound 1.265 µM,0.925
same,relative viability,[5]; first compound 4 µM,0.96
same,relative viability,[6]; first compound 0.04 µM,1.19
same,relative viability,[6]; first compound 0.1265 µM,1.05
same,relative viability,[6]; first compound 0.4 µM,1.02
same,relative viability,[6]; first compound 1.265 µM,0.983
same,relative viability,[6]; first compound 4 µM,0.972
same,relative viability,[7]; first compound 0.04 µM,0.71
same,relative viability,[7]; first compound 0.1265 µM,0.709
same,relative viability,[7]; first compound 0.4 µM,0.681
same,relative viability,[7]; first compound 1.265 µM,0.497
same,relative viability,[7]; first compound 4 µM,0.64
same,relative viability,[8]; first compound 0.1265 µM,0.86
same,relative viability,[8]; first compound 0.4 µM,0.854
same,relative viability,[8]; first compound 1.265 µM,0.768
same,relative viability,[8]; first compound 4 µM,0.933
same,relative viability,[9]; first compound 0.04 µM,0.988
same,relative viability,[9]; first compound 0.1265 µM,0.773
same,relative viability,[9]; first compound 0.4 µM,0.892
same,relative viability,[9]; first compound 1.265 µM,0.615
same,relative viability,[9]; first compound 4 µM,0.753
same,relative viability,[10]; first compound 0.04 µM,1.05
same,relative viability,[10]; first compound 0.1265 µM,1.03
same,relative viability,[10]; first compound 0.4 µM,0.938
same,relative viability,[10]; first compound 1.265 µM,0.962
same,relative viability,[10]; first compound 4 µM,0.853
same,relative viability,[11]; first compound 0.04 µM,1.23
same,relative viability,[11]; first compound 0.1265 µM,1.24
same,relative viability,[11]; first compound 0.4 µM,1.18
same,relative viability,[11]; first compound 1.265 µM,0.977
same,relative viability,[11]; first compound 4 µM,1.28
same,relative viability,[12]; first compound 0.04 µM,0.677
same,relative viability,[12]; first compound 0.1265 µM,0.464
same,relative viability,[12]; first compound 0.4 µM,0.454
same,relative viability,[12]; first compound 1.265 µM,0.427
same,relative viability,[12]; first compound 4 µM,0.307
same,relative viability,[13]; first compound 0.04 µM,0.779
same,relative viability,[13]; first compound 0.1265 µM,0.81
same,relative viability,[13]; first compound 0.4 µM,0.834
same,relative viability,[13]; first compound 1.265 µM,0.634
same,relative viability,[13]; first compound 4 µM,0.744
same,relative viability,[14]; first compound 0.04 µM,0.978
same,relative viability,[14]; first compound 0.1265 µM,0.855
same,relative viability,[14]; first compound 0.4 µM,0.882
same,relative viability,[14]; first compound 1.265 µM,0.687
same,relative viability,[14]; first compound 4 µM,0.818
same,relative viability,[15]; first compound 0.04 µM,0.526
same,relative viability,[15]; first compound 0.1265 µM,0.461
same,relative viability,[15]; first compound 0.4 µM,0.529
same,relative viability,[15]; first compound 1.265 µM,0.318
same,relative viability,[15]; first compound 4 µM,0.235
same,relative viability,[16]; first compound 0.04 µM,1.16
same,relative viability,[16]; first compound 0.1265 µM,0.992
same,relative viability,[16]; first compound 1.265 µM,0.955
same,relative viability,[16]; first compound 4 µM,0.393
same,relative viability,[17]; first compound 0.04 µM,0.799
same,relative viability,[17]; first compound 0.1265 µM,0.868
same,relative viability,[17]; first compound 0.4 µM,0.641
same,relative viability,[17]; first compound 1.265 µM,0.571
same,relative viability,[17]; first compound 4 µM,0.596
same,relative viability,[18]; first compound 0.04 µM,0.863
same,relative viability,[18]; first compound 0.1265 µM,0.972
same,relative viability,[18]; first compound 0.4 µM,0.914
same,relative viability,[18]; first compound 1.265 µM,0.783
same,relative viability,[18]; first compound 4 µM,0.238
same,relative viability,[19]; first compound 0.04 µM,0.96
same,relative viability,[19]; first compound 0.1265 µM,0.988
same,relative viability,[19]; first compound 0.4 µM,1.01
same,relative viability,[19]; first compound 1.265 µM,0.978
same,relative viability,[19]; first compound 4 µM,0.923
same,relative viability,[20]; first compound 0.04 µM,0.652
same,relative viability,[20]; first compound 0.1265 µM,0.581
same,relative viability,[20]; first compound 0.4 µM,0.621
same,relative viability,[20]; first compound 1.265 µM,0.445
same,relative viability,[20]; first compound 4 µM,0.171
